Assay results: publication PMC12530851, “Design, synthesis, and apoptotic antiproliferative activity of novel dihydropyrimidine-5-carbonitrile/1,2,4-oxadiazole hybrids as dual EGFR/VEGFR-2 inhibitors endowed with antioxidant activity” (RSC Advances, 2025)
Several values for one entry are separate records, joined by “and”; a condition that tells them apart may be missing. Equal values may be shown once.

Assays:
[1] = test system: four human cancer cell lines (A-549, MCF-7, Panc-1, HT-29); test: Antiproliferative assay, average over four cancer cell lines; format: cell-based; settings: for GI50: Homo sapiens, average IC50 across A-549, MCF-7, Panc-1, HT-29
Method: The given findings were obtained from at least two distinct studies, each comprising three repeats per concentration. Appendix A (SI File) provides experimental details.[38,39] […]
(§1) 4.2.2. Assay for antiproliferative effect
To explore the antiproliferative potential of compounds propidium iodide fluorescence assay was performed using different cell lines such as Panc-1 (pancreas cancer cell line), MCF-7 (breast […]
respectively. To calculate the total nuclear DNA, a fluorescent dye (propidium iodide, PI) is used which can attach to the DNA, thus offering a quick and precise technique. PI cannot pass through the cell membrane and its signal intensity can be considered as directly proportional to quantity of cellular DNA. Cells whose cell membranes are damaged or have changed permeability are counted as dead ones. The assay was performed by seeding the cells of different cell lines at a density of 3000-7500 cells/well (in 200μl medium) in culture plates followed by incubation for 24h at 37 °C […]
The medium was removed; the compounds were added to the plates at 10 μM concentrations (in 0.1% DMSO) in triplicates, followed by incubation for 48h. DMSO (0.1%) was used as control. After incubation, medium was removed followed by the addition of PI (25 μl, 50μg/mL in water/medium) to each well of the plates. At - 80 °C, the plates were allowed to freeze for 24 h, followed by thawing at 25 °C. A fluorometer (Polar-Star BMG Tech) was used to record the readings at excitation and emission wavelengths of 530 and 620 nm for each well. The percentage cytotoxicity of compounds was calculated using […]
Where ATC= Absorbance of treated cells and AC= Absorbance of control. […]
positive control in the assay. […]

[2] = test system: caspase-3; test: Caspase-3 activation assay in MCF-7 cells; format: cell-based, human; settings: for Caspase-3 Fold change: vs untreated control
[3] = biological target: VEGFR-2 (Homo sapiens, UniProt P35968); test: VEGFR-2 inhibitory assay
VEGFR-2, sequence (P35968 20-1356): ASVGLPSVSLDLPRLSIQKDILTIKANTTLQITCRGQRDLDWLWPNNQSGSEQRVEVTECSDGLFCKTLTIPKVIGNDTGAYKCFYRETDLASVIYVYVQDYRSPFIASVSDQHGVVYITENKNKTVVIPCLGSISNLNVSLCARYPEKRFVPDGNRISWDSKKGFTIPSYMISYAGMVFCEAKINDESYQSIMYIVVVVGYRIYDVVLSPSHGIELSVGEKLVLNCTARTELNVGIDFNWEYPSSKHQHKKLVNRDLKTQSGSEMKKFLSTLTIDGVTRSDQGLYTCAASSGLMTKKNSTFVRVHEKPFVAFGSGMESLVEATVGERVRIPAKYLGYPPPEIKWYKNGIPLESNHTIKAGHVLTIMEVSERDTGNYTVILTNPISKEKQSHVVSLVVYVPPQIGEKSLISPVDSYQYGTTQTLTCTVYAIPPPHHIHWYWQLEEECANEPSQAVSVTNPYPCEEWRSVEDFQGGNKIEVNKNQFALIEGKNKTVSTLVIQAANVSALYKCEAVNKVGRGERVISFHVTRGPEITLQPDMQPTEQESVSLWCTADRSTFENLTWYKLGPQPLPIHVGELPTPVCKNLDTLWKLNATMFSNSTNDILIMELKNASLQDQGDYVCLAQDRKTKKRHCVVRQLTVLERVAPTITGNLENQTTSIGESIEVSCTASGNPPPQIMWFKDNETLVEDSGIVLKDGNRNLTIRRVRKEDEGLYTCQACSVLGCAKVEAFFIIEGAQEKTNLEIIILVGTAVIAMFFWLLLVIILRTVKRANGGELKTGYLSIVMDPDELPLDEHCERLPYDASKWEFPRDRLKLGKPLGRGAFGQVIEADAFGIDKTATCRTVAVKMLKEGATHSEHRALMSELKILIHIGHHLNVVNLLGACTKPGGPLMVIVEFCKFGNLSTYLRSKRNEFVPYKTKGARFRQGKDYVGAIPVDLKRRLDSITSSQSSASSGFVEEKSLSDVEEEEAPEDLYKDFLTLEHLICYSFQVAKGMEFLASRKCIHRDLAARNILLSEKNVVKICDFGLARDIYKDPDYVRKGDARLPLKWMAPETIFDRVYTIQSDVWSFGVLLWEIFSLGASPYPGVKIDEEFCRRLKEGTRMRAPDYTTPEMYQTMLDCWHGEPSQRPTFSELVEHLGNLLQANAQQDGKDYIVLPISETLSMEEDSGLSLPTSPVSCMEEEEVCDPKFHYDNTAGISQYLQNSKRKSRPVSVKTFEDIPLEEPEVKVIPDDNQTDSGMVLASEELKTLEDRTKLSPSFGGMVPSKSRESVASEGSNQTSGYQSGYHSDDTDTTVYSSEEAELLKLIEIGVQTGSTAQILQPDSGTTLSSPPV
Method: The majority of signals detected by antiphosphotyrosine antibody were from EGFR because the enzyme preparation contained low impurities.
Prepare all the solutions using autoclaved, deionized water and analytical grade reagents. Prepare
and store all the reagents at room temperature (unless indicated otherwise). EDTA solution (0.5
M, pH 8.0): add 95 mL ultra-pure water to 14.612 g EDTA, adjust the pH to 8.0 using NaOH
solution, add 5 mL ultra-pure water; 1×Kinase Assay Buffer: add 25 mL HEPES solution (1 M),
water, adjust pH to 7.5 and constant volume to 500 mL using ultrapure water; 4×Stop solution (40
mM): Mix 0.8 mL of the foregoing EDTA solution, 1 mL 10×Detection Buffer and 8.2 mL ultra-
pure water; 1×Detection Buffer: Mix 1 mL 10×Detection Buffer with 9 mL water; 4×VEGFR
μM) was added to 624 μL 1×Kinase Assay Buffer and mixed; 4×ULight™-labeled JAK1
concentration 5 μM) was added to 576 μL 1×Kinase Assay Buffer and mixed; 4×ATP Solution
2×substrate/ATP Mix: 560 μL foregoing 4×ULight™-labeled JAK1 and 560 μL 4×ATP solution
and mixed (prepared before use). The assays used an ULight-labeled peptide substrate and a
Europium-W1024-labeled antiphosphotyrosine antibody. The VEGFR-2 was purchased from
Carna Biosciences, Inc. (New York, USA). The 384-well plates were obtained from PerkinElmer.
Compounds were dissolved in DMSO and diluted to 11 concentrations at a tripling rate from 2.500
5 μL 2×VEGFR-2 kinase solution (0.5 nM)
was added to 384-well plates homogeneous mixing and pre-reaction at room temperature for 30
min. Next, 2.5 μL 4×Ultra ULightTM-JAK-1(Tyr1023) Peptide (200 nM)/ATP (40 μM) was
added to the corresponding wells of a 384-well plate. Negative control: 2.5 μL/well 4×substrate/ATP mixture and 7.5 μL 1×kinase assay buffer in 384-well plate well. Positive control:
μL/well 2×VEGFR-2 kinase solution was added to the 384-well plate, The final concentration of DMSO in the mixing system was 4%. After incubation at room temperature and dark for 60 min, 5 μL 4×stop solution was added to corresponding wells to react for 5 min and then 5 μL 4×detection mix was added to the corresponding wells of a 384-well plate. The mixture was centrifugally mixed and stayed for 60 min at room temperature for color development. The plate
was read using an Envision plate reader. The inhibition rate (%) = (positive well reading-
compound well reading)/(positive well reading-negative well reading)×100. The corresponding IC50 values were calculated using GraphPad Prism 5.0.

[4] = biological target: EGFR (Homo sapiens, UniProt P00533); test: EGFR inhibitory assay (EGFR-TK test); settings: for EGFR inhibitory potency relative to erlotinib: more potent than erlotinib
EGFR, sequence (P00533 669-1210): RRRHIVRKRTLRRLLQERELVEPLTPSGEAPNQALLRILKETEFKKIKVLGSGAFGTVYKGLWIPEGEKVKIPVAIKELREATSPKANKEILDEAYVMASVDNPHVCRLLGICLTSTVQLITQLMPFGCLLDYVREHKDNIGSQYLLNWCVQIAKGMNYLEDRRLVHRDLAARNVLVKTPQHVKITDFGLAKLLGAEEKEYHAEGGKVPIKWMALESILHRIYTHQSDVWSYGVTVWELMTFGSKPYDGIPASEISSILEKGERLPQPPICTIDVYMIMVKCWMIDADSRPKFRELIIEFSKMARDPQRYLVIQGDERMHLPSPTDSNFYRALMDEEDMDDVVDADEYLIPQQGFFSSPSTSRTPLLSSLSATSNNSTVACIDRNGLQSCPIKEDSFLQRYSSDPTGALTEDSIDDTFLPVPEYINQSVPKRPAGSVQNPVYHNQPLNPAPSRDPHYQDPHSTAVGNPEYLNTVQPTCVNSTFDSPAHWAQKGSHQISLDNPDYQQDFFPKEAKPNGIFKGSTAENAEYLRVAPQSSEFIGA
Method: Baculoviral expression vectors including pBlueBacHis2B and pFASTBacHTc were used
5ʹ upstream to the EGFR sequence comprised a sequence that encoded (His)6. Sf-9 cells were infected for 72h for protein expression. The pellets of Sf-9 cells were solubilized in a buffer containing sodium vanadate (100 μM), aprotinin (10 μg/mL), triton (1%), HEPES
buffer(50mM), ammonium molybdate (10 μM), benzamidine HCl (16 μg/mL), NaCl (10 mM),leupeptin (10 μg/mL) and pepstatin (10 μg/mL) at 0°C for 20 min at pH 7.4, followed by centrifugation for 20 min. To eliminate the nonspecifically bound material, a Ni-NTA super flow packed column was used to pass through and wash the crude extract supernatant first with 10mM and then with 100 mM imidazole. Histidine-linked proteins were first eluted with 250 and then with 500 mM imidazole subsequent to dialysis against NaCl (50 mM), HEPES (20 mM), glycerol (10%) and 1 μg/mL each of aprotinin, leupeptin and pepstatin for 120 min. The purification was performed either at 4 °C or on ice. To record autophosphorylation level, EGFR kinase assay was carried out on the basis of DELFIA/Time-Resolved Fluorometry. The compounds were first
dissolved in DMSO absolute, subsequent to dilution to appropriate concentration using HEPES
(25 mM) at pH 7.4. Each compound (10 μL) was incubated with recombinant enzyme (10 μL, 5
ng for EGFR, 1:80 dilution in 100 mM HEPES) for 10 min at 25 °C, subsequent to the addition of
5X buffer (10 μL, containing 2 mM MnCl2, 100 μM Na3VO4, 20 mM HEPES and 1 mM DTT)
and ATP-MgCl2 (20 μL, containing 0.1 mM ATP and 50 mM MgCl2) and incubation for 1h. The
negative and positive controls were included in each plate by the incubation of enzyme either with
or without ATP-MgCl2. The liquid was removed after incubation and the plates were washed
thrice using a wash buffer. The Europium-tagged antiphosphotyrosine antibody (75 μL, 400 ng)
was added to each well followed by incubation of 1h and then washing of the plates using buffer.
The enhancement solution was added to each well and the signal was recorded at excitation and
The autophosphorylation percentage inhibition by compounds was calculated using the following equation:
calculated. The majority of signals detected by antiphosphotyrosine antibody were from EGFR because the enzyme preparation contained low impurities.

[5] = test system: normal human diploid cell line (WI-38); test: Cytotoxicity against normal cell line (MTT); format: cell-based; settings: for Selectivity index (SI), A-549: WI-38 vs A-549; for Selectivity index (SI), HT-29: WI-38 vs HT-29; for Selectivity index (SI), MCF-7: WI-38 vs MCF-7; for Selectivity index (SI), Panc-1: WI-38 vs Panc-1
[6] = Cytotoxicity against normal cell line (MTT); format: cell-based, human; settings: WI-38 normal human diploid cells; normal human diploid WI-38 cells, MTT
[7] = test system: Panc-1 (pancreatic cancer); test: Antiproliferative assay, Panc-1; format: cell-based; settings: Homo sapiens; Panc-1 pancreatic cancer cells; read-out: Antiproliferative activity IC50 ± SEM, Panc-1
From the text: (§2) The dose–response experiments established the IC50 values for the new compounds. The given findings were obtained from at least two distinct studies, each comprising three repeats per concentration. Appendix A (SI File) provides experimental details.[38,39]
(§3) The MTT assay[43] was utilized to assess the antiproliferative effects of compounds 10a–l on four human cancer cell lines: HT-29 (colon cancer), Panc-1 (pancreatic cancer), A-549 (lung cancer), and MCF-7 (breast cancer). […]
as §1
(§4) To explore the antiproliferative potential of compounds propidium iodide fluorescence assay was performed using different cell lines such as Panc-1 (pancreas cancer cell line), MCF-7 (breast cancer cell line), HT-29 (colon cancer cell line) and A-549 (epithelial cancer cell line), respectively. To calculate the total nuclear DNA, a fluorescent dye (propidium iodide, PI) is used which can attach to the DNA, thus offering a quick and precise technique. PI cannot pass through the cell membrane and its signal intensity can be considered as directly proportional to quantity of cellular DNA. Cells whose cell membranes are damaged or have changed permeability are counted as dead ones. The assay was performed by seeding the cells of different cell lines at a density of 3000-7500 cells/well (in 200μl medium) in culture plates followed by incubation for 24h at 37 °C in humidified 5%CO2/95% air atmospheric conditions. The medium was removed; the compounds were added to the plates at 10 μM concentrations (in 0.1% DMSO) in triplicates, followed by incubation for 48h. DMSO (0.1%) was used as control. After incubation, medium was removed followed by the addition of PI (25 μl, 50μg/mL in water/medium) to each well of the plates. At - 80 °C, the plates were allowed to freeze for 24 h, followed by thawing at 25 °C. A fluorometer (Polar-Star BMG Tech) was used to record the readings at excitation and emission wavelengths of 530 and 620 nm for each well. The percentage cytotoxicity of compounds was calculated using […]
(§5) Where ATC= Absorbance of treated cells and AC= Absorbance of control. Erlotinib was used as positive control in the assay. […]

[8] = test system: A-549 (lung cancer); test: Antiproliferative assay, A-549; format: cell-based; settings: Homo sapiens, A549; A-549 lung cancer cells; read-out: Antiproliferative activity IC50 ± SEM, A-549
From the text: as §2, §3, §1, §4, §5

[9] = test system: caspase-8; test: Caspase-8 activation assay in MCF-7 cells; format: cell-based, human; settings: for Caspase-8 Fold change: vs untreated control
Method: Compounds10k and 10l were tested as caspases-3, 8, 9, Bax and p53 activators and as down-regulators of the anti-apoptotic protein Bcl2 against the MCF-7 breast cancer cell line.[41] Appendix A gives more details.
To elucidate the apoptotic processes of compounds 10k and 10l, whether via the intrinsic or extrinsic pathway, their impacts on caspase-8 and caspase-9 were evaluated. […] This signifies the activation of both intrinsic and extrinsic pathways (Table 5).
4.2.6. Caspase-8/9 activation assay
Cells were obtained from American Type Culture Collection, cells were grown in RPMI 1640 containing 10% fetal bovine serum at 37°C, stimulated with the compounds to be tested for caspase 8/9, and lysed with Cell Extraction Buffer. This lysate was diluted in Standard Diluent Buffer over the range of the assay and measured for human active caspase-8/9 content. (Cells are Plated in a density of 1.2 – 1.8 × 10,000 cells/well in a volume of 100µl complete growth medium + 100 ul of the tested compound per well in a 96-well plate for 24 hours before the enzyme assay). The absorbance of each microwell was read on a spectro-photometer at 450 nm. […]

Row | GI50 [1] | IC50 [3] | IC50 [4] | EGFR inhibitory potency relative to erlotinib [4] | IC50 [7] | IC50 [8] | Compound | Potency relative to erlotinib, the other three cell lines ([1]; A-549, Panc-1, HT-29, greater potency than erlotinib) | Caspase-3 Conc [2] | Caspase-3 Fold change [2] | Selectivity index (SI), A-549 [5] | Selectivity index (SI), HT-29 [5] | Selectivity index (SI), MCF-7 [5] | Selectivity index (SI), Panc-1 [5] | IC50 [6] | Caspase-8 Conc [9] | Caspase-8 Fold change [9]
1 | 22 nM | 21 ± 1 nM | 57 ± 3 nM | 1.4 fold | 22 ± 1 nM | 23 ± 1 nM | COc1ccc(-c2nc(SCc3nc(-c4ccc(Cl)cc4)no3)[nH]c(=O)c2C#N)cc1 [Compound 10k, 2-(((3-(4-Chlorophenyl)-1,2,4-oxadiazol-5-yl)methyl)thio)-4-(4-methoxyphenyl)-6-oxo-1,6-dihydropyrimidine-5-carbonitrile] | 1.3 fold | 590 ± 5 pg/mL | 9 fold and 9.00 fold | > 8.0 | > 8.0 | > 10.0 | > 9.0 | > 200 nM | 2.50 ± 0.20 ng/mL | 25 fold and 25.00 fold
2 | 26 nM | 26 ± 1 nM | 61 ± 4 nM | 1.3 fold | 26 ± 1 nM | 28 ± 1 nM | COc1ccc(-c2noc(CSc3nc(-c4ccc(OC)cc4)c(C#N)c(=O)[nH]3)n2)cc1 [Compound 10l, 2-(((3-(4-Methoxyphenyl)-1,2,4-oxadiazol-5-yl)methyl)thio)-4-(4-methoxyphenyl)-6-oxo-1,6-dihydropyrimidine-5-carbonitrile] |  | 530 ± 4 pg/mL | 8 fold and 8.00 fold | > 7.0 | > 7.0 | > 9.0 | > 7.0 | > 200 nM | 2.00 ± 0.10 ng/mL | 20 fold and 20.00 fold
